Assay results from ChEMBL document CHEMBL1201862, “PubChem BioAssay data set” (2004).
The source made the active and inactive calls. Cut-off read from the data, not from the text of the source, for most assays here: actives have a measured EC50 and inactives only a lower limit.

Legend:
[1] = viability of uninfected HEp-2 cells – cell-based, HTS, cytotoxicity control for RSV inhibitor project, dose response (AID 2410); format: functional; settings: human respiratory syncytial virus
[2] = molecular target: T1, Ubiquitin-conjugating enzyme E2 N (Homo sapiens, UniProt P61088); format: functional;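 note: Dose-response confirmation in a TR-FRET assay detecting UBC13-driven polyubiquitin chain formation, inhibition measured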
T1 sequence (P61088 whole entry): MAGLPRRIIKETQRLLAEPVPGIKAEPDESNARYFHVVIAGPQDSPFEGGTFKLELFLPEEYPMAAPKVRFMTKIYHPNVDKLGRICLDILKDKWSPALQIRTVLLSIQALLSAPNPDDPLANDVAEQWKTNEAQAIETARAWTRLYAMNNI

[3] = viability of PTEN-deleted HCT116 cells – cell-based, HCT116 PTEN knockout, dose response (AID 1047); format: functional;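 note: HCT116 colon tumor cells with PTEN knocked out; cells exposed to compound for 60 hours before readout; potency for loss of cell viability measured by luminescence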
[4] = viability of HCT116 lacking mutant beta-catenin – cell-based, human colon tumor, dose response (AID 1045); format: functional;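 note: HCT116 colon tumor cells with beta catenin knocked out; cells exposed to compound for 60 hours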
[5] = molecular target: T2, RNA-binding protein pos-1 (Caenorhabditis elegans, UniProt G5EF15); assay: disruptors of C. elegans POS-1 RNA interaction – biochemical, fluorescence polarization, dose response (AID 1964);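 note: purified POS-1 fused to maltose binding protein made in E. coli; potency of compounds blocking POS-1 binding to fluorescent RNA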
T2 sequence (G5EF15 whole entry): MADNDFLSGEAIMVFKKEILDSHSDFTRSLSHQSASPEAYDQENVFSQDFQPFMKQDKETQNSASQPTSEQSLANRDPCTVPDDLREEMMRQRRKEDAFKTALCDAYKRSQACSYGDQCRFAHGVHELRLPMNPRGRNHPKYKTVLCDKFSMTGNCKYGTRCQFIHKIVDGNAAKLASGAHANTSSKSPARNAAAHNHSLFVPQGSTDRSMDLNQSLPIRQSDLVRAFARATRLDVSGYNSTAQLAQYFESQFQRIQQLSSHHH

[6] = molecular target: T3, Zinc finger protein mex-5 (Caenorhabditis elegans, UniProt Q9XUB2); assay: potency of MEX-5 RNA-binding blockers – biochemical, C. elegans, fluorescence polarization, dose response (AID 1960)
T3 sequence (Q9XUB2 whole entry): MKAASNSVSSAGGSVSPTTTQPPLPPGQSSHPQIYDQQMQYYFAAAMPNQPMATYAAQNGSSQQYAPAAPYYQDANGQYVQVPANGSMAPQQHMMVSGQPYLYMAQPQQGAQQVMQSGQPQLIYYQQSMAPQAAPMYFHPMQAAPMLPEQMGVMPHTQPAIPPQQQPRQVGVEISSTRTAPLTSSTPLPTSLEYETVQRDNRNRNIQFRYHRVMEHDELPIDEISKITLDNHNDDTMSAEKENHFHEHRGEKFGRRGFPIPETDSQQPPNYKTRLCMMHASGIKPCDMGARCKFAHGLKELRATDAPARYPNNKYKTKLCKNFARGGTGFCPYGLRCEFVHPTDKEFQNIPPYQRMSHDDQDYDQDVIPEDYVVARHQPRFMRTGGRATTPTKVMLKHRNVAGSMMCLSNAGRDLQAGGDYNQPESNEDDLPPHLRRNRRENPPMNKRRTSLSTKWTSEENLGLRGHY

[7] = molecular target: T4, Corticotropin-releasing factor receptor 2/Corticotropin-releasing factor-binding protein (Homo sapiens, UniProt P24387+Q13324); assay: activators of CRF receptor 2 with binding protein – uHTS hits, confirmation (AID 602473); format: functional; settings: read-out: EC50_Mean
T4 sequence (Q13324 whole entry): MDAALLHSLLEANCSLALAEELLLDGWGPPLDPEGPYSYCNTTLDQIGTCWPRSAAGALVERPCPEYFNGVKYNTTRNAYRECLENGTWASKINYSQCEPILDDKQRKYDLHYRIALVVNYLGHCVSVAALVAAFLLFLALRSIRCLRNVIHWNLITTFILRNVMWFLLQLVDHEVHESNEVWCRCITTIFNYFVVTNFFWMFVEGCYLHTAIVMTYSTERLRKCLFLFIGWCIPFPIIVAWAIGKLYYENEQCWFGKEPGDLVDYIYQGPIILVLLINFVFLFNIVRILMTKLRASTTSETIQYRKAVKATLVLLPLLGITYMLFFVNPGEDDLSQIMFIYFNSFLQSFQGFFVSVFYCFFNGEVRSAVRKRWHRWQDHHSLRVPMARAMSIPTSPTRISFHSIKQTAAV
T4 sequence (P24387 whole entry): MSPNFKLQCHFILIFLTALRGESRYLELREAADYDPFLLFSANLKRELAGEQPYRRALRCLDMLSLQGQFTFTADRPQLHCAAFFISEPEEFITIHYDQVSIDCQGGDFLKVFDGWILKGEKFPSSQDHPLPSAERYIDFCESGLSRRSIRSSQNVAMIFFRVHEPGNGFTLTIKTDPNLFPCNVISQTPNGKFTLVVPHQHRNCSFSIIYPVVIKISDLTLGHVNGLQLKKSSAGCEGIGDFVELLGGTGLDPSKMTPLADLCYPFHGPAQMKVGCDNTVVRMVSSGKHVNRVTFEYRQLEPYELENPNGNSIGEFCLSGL

cells = format: functional
[8] = test system: Streptococcus sp. 'group A'; assay: Streptococcus pyogenes SK(-)GAS viability under kanamycin – luminescence, BacTiterGlo, confirmation, counter-screen for streptokinase expression inhibitor project, dose response (AID 1900); format: functional, organism-based
Streptokinase A = molecular target: T5, Streptokinase A (Streptococcus pyogenes serotype M1, UniProt P10520); assay: viability-normalized secreted streptokinase activity reduction – plasminogen activation absorbance, OD405, dose response (AID 1914); format: functional, Streptococcus pyogenes M1 GAS;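 note: secreted streptokinase activity via plasminogen activation per viability signal from cell pellet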
T5 sequence (P10520 whole entry): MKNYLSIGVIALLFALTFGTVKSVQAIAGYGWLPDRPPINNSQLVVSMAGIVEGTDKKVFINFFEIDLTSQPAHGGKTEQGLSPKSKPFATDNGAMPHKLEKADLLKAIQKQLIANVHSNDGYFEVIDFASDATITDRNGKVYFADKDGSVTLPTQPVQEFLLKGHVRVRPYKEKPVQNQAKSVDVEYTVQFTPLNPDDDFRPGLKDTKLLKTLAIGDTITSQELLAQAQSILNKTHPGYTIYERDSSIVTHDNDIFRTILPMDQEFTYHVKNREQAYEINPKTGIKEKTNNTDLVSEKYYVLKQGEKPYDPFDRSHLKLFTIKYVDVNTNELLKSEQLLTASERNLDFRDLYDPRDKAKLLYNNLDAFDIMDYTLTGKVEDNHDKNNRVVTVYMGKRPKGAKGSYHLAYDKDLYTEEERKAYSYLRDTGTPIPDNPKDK

Streptococcus = assay: GAS UMAA2166 growth inhibition – luminescence, BacTiterGlo, counter-screen for streptokinase expression inhibitor project, dose response (AID 1915); format: functional, organism-based;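 note: potency for reduction of bacterial viability or growth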
[9] = Luminescence Cell-Based Dose Confirmation HTS to Identify Activators of 5'UTR Stem-Loop Driven Alpha-Synuclein mRNA Translation in H4 Neuroglioblastoma Cells. [Related pubchem assays: 1829 (Project Summary), 1814 (Primary HTS)]; format: functional
[10] = Luminescence Cell-Based Dose Response HTS to Identify Activators of Luciferase Translation or Activity in H4 […] Cells. [Related pubchem assays: 1829 (Project Summary), 1814 (Primary HTS)]; format: functional
H4 = assay: Luminescence Cell-Based Dose Response HTS to Identify Activators of 5'UTR Stem-Loop Driven Prion Protein mRNA Translation in H4 Neuroglioblastoma Cells. [Related pubchem assays: 1829 (Project Summary), 1814 (Primary HTS)]; format: functional; settings: Homo sapiens
[11] = reduction of Shn3 3'UTR-driven luciferase in osteoblasts – cell-based, Clone20 osteoblasts, firefly luciferase, cherry-picked, dose response (AID 624132); format: functional;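 note: firefly luciferase luminescence from reporter carrying the Shn3 3'UTR in osteoblasts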
[12] = loss of viability in HepG2 cells – cell-based, CellTiter-Glo, cherry-picked, cytotoxicity control for Shn3 inhibitor project, dose response (AID 624134); format: functional
[13] = non-specific 3'UTR reporter inhibition in Clone20-Shn3RL – cell-based, Renilla luciferase, cherry-picked, counter-screen for Shn3 inhibitor project, dose response (AID 624133); format: functional
[14] = molecular target: Luciferin 4-monooxygenase (Photinus pyralis, UniProt P08659); assay: inhibition of purified Photinus pyralis luciferase – biochemical, luminescence, dose response (AID 1891)
[15] = Luminescence Cell-Based Dose Confirmation HTS to Identify Inhibitors of Platelet Dense Granule Release. [Related pubchem assays: 1663 (Primary HTS), 1678 (Summary of Project)]; format: functional
[16] = molecular target: T6, Rac GTPase-activating protein 1 (Homo sapiens, UniProt Q9H0H5); assay: blockers of MgcRacGAP-driven Rac1 GTP hydrolysis – biochemical, ADP Hunter fluorescence, primary and confirmatory, confirmation (AID 624330); format: functional
T6 sequence (Q9H0H5 whole entry): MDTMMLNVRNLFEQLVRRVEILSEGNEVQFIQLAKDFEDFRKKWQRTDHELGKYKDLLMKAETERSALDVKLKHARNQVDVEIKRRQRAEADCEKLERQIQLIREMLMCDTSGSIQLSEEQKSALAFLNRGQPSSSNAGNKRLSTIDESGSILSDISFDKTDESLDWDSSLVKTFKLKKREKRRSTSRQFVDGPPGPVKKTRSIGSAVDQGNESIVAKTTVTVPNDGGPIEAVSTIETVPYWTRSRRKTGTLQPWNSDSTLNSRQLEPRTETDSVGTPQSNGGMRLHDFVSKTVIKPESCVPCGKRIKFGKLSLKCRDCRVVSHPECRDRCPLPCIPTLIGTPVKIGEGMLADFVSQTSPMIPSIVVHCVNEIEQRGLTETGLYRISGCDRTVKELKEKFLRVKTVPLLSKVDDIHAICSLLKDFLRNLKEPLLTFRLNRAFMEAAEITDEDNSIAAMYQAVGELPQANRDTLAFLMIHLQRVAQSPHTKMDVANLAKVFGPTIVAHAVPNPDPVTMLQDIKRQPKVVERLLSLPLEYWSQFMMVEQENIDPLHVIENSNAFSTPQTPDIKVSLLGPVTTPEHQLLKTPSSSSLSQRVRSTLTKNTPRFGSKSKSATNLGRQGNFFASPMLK

Sequence of Luciferin 4-monooxygenase (P08659 whole entry): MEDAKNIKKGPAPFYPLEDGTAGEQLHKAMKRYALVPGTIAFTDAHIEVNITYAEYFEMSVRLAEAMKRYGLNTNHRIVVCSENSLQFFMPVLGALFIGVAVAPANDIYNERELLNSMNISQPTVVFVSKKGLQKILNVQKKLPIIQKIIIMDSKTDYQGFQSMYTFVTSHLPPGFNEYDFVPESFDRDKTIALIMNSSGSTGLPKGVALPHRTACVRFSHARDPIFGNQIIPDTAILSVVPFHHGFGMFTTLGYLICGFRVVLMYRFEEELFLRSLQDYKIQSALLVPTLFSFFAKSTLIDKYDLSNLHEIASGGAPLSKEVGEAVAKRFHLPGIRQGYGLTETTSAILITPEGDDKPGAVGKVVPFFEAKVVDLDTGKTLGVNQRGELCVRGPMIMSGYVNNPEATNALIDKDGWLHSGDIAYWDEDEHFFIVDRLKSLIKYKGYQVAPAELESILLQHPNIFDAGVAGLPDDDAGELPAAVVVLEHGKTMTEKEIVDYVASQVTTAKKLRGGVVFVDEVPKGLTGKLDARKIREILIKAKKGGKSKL

## Cc1c(C(=O)Nc2ccc(S(=O)(=O)N(C)C3CCN(C)CC3)cc2)oc2ccccc12
[1]
  CC50: 17.2 µM (active)
[2]
  IC50: > 20 µM (inactive)

## C/C(=N\NC(=O)c1c(Br)c(C)nn1C)c1ccc(NC(=O)C(C)Oc2ccc(Cl)cc2C)cc1 (configuration not stated)
[3]
  EC50: 11 µM (active)
[4]
  EC50: 15.1 µM (active)

## CC1=CC(C)(C)N2C(=O)C3(C(C#N)=C(N)OC4=C3C(=O)CC(C)(C)C4)c3cc(C)cc1c32 (configuration not stated)
[5]
  EC50: > 300 µM (not active)
[6]
  EC50: > 300 µM (not active)

## CN(C)c1ccc(C=C2SC(=S)N(Cc3ccco3)C2=O)cc1
[7]
  EC50: 3.2 µM (active)

## COc1ccc(/C=N/NC(=O)CSCc2ccc([N+](=O)[O-])cc2)cc1OC
[2]
  IC50: > 20 µM (inactive)

## Cc1ccc(NC(=O)c2ccc(NCCN)c([N+](=O)[O-])c2)cc1Cl
[1]
  CC50: 24.4 µM (active)
[2]
  IC50: > 20 µM (inactive)

## CC(=O)c1ccc(OCC(=O)Nc2ccc3c(c2)CCC3)cc1
cells
  IC50: > 50 µM (active)

## O=C(NC1CCCCC1)C(c1ccccc1F)N(Cc1ccco1)C(=O)Cn1nnc2ccccc21 (configuration not stated)
[3]
  EC50: 16 µM (active)
[4]
  EC50: 16 µM (active)

## CC(=O)Nc1nc2ccccc2n1CCOc1ccccc1
[8]
  EC50: 11.3 µM (active)
Streptokinase A
  EC50: > 150 µM (not active)
[3]
  EC50: 15.4 µM (active)
[4]
  EC50: 12.7 µM (active)
Streptococcus
  EC50: > 150 µM (not active)

## CO[C@H]1O[C@H](CBr)[C@@H](OC(=O)c2ccccc2)[C@H](O)[C@H]1O
[5]
  EC50: > 300 µM (not active)
[6]
  EC50: > 300 µM (not active)

## Cc1cccc(OCC(=O)NC(C)C(=O)N/N=C/c2c(OCc3ccccc3)ccc3ccccc23)c1 (configuration not stated)
[9]
  EC50: 9.47 µM (active)
[10]
  EC50: 39.7 µM (active)
H4
  EC50: 33.5 µM (active)

## O=C1c2ccccc2C(=O)N1CCN1CCc2ccccc21
[9]
  EC50: 13.7 µM (active)
[10]
  EC50: 17.9 µM (active)
H4
  EC50: 30.3 µM (active)

## Cc1cc(NC(=O)COC(=O)COc2ccc(C(=O)c3ccccc3)cc2)no1
cells
  IC50: 21.2 µM (active)

## O=C1C2=C(SCCS2)C(=O)N1c1ccccc1
[5]
  EC50: > 300 µM (not active)
[6]
  EC50: > 300 µM (not active)

## Cc1nn(-c2ccc(Cl)nn2)c(=O)c2ccccc12
[9]
  EC50: 12.5 µM (active)
[10]
  EC50: 14.4 µM (active)
H4
  EC50: 16.4 µM (active)

## CC1CCCCC1NC(=O)/C=C/c1nc2ccccc2s1 (configuration not stated)
[9]
  EC50: 15.9 µM (active)
[10]
  EC50: 17.2 µM (active)
H4
  EC50: 16.2 µM (active)

## COCCCNC(=O)CCC(=O)NNc1nc2ccccc2c2nc(C)nn12
[5]
  EC50: > 300 µM (not active)
[6]
  EC50: 1.13 µM (active)

## CN(C)CCCN(C(=O)c1ccc(S(=O)(=O)N2CCCC2)cc1)c1nc2ccc(Br)cc2s1
[2]
  IC50: > 20 µM (inactive)

## Cc1cccc(-c2nc(C#N)c(N3CCCCC3)o2)c1
[9]
  EC50: 10 µM (active)
[10]
  EC50: 20 µM (active)
H4
  EC50: 3.9 µM (active)

## Cc1cc(N/N=C/c2cccc(Cl)c2)nc(NCc2ccccc2)n1
[3]
  EC50: 35.3 µM (active)
[4]
  EC50: 39.6 µM (active)

## c1csc(CCNc2ncnc3sc4c(c23)CCC4)c1
[3]
  EC50: 63.9 µM (active)
[4]
  EC50: 72.7 µM (active)
[11]
  AC50: 1.7 µM (active)
[12]
  AC50: 7.76 µM (active)
[13]
  AC50: 0.988 µM (active)

## Cc1[n-][o+]nc1OCCNCCNc1ccc([N+](=O)[O-])c2cccnc12
[5]
  EC50: 120 µM (active)
[6]
  EC50: 18.6 µM (active)

## COc1ccc(C[C@H]2CN3C(=NC[C@@H]3Cc3ccccc3)N2CCNC(=O)c2ccc(C)c(Br)c2)cc1
[2]
  IC50: > 20 µM (inactive)

## CC(C)=C(NC(=O)c1ccccc1)C(=O)N/N=C/c1ccc(O)cc1
[9]
  EC50: 11.3 µM (active)
[10]
  EC50: 11.8 µM (active)
H4
  EC50: 8.89 µM (active)
[14]
  EC50: > 112 µM (not active)
[15]
  EC50: > 112 µM (not active)
[16]
  IC50: 102 µM (active)
